Experimental data: PubChem BioAssay AID248 (DTP/NCI, 2004)
Inconclusive results and toxic doses are left out. Rule as the data show it: active = T/C of 150% or more; inactive = T/C below 125%.

System: L1210 leukemia ip in BDF1 mice, survival T/C
Assay: NCI In Vivo Anticancer Drug Screen. Data for tumor model L1210 Leukemia (intraperitoneal) in B6D2F1 (BDF1) mice
Details: endpoint: mean survival time, higher = longer survival
Method in brief: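 Antitumor effect is assessed in tumor-bearing animals. Survival in the compound arm is compared with a vehicle-dosed control arm and expressed as their quotient.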

[1] = dose: 100.0 mg/kg/injection, schedule: Q01DX009 (ip), vehicle: saline with Tween-80
[2] = dose: 100.0 mg/kg/injection, schedule: Q04DX003 (ip), vehicle: saline with Tween-80
[3] = dose: 200.0 mg/kg/injection, schedule: Q01DX009 (ip), vehicle: saline with Tween-80
[4] = dose: 200.0 mg/kg/injection, schedule: Q04DX003 (ip), vehicle: saline with Tween-80
[5] = dose: 400.0 mg/kg/injection, schedule: Q01DX009 (ip), vehicle: saline with Tween-80
[6] = dose: 400.0 mg/kg/injection, schedule: Q04DX003 (ip), vehicle: saline with Tween-80
[7] = dose: 100.0 mg/kg/injection, schedule: Q01DX009 (ip), vehicle: saline
[8] = dose: 100.0 mg/kg/injection, schedule: Q04DX003 (ip), vehicle: saline
[9] = dose: 50.0 mg/kg/injection, schedule: Q01DX009 (ip), vehicle: Klucel (hydroxypropylcellulose) (HPC)
[10] = dose: 100.0 mg/kg/injection, schedule: Q01DX009 (ip), vehicle: Klucel (hydroxypropylcellulose) (HPC)
[11] = dose: 100.0 mg/kg/injection, schedule: Q04DX003 (ip), vehicle: Klucel (hydroxypropylcellulose) (HPC)
[12] = dose: 200.0 mg/kg/injection, schedule: Q01DX009 (ip), vehicle: Klucel (hydroxypropylcellulose) (HPC)
[13] = dose: 200.0 mg/kg/injection, schedule: Q04DX003 (ip), vehicle: Klucel (hydroxypropylcellulose) (HPC)
[14] = dose: 400.0 mg/kg/injection, schedule: Q01DX009 (ip), vehicle: Klucel (hydroxypropylcellulose) (HPC)
[15] = dose: 400.0 mg/kg/injection, schedule: Q04DX003 (ip), vehicle: Klucel (hydroxypropylcellulose) (HPC)
[16] = dose: 100.0 mg/kg/injection, schedule: Q04DX002 (ip), vehicle: Klucel (hydroxypropylcellulose) (HPC)
[17] = dose: 200.0 mg/kg/injection, schedule: Q04DX002 (ip), vehicle: Klucel (hydroxypropylcellulose) (HPC)
[18] = dose: 400.0 mg/kg/injection, schedule: Q04DX002 (ip), vehicle: Klucel (hydroxypropylcellulose) (HPC)
[19] = dose: 100.0 mg/kg/injection, schedule: Q01DX001 (ip), vehicle: saline
[20] = dose: 200.0 mg/kg/injection, schedule: Q01DX001 (ip), vehicle: saline
[21] = dose: 200.0 mg/kg/injection, schedule: Q04DX003 (ip), vehicle: saline
[22] = dose: 400.0 mg/kg/injection, schedule: Q01DX001 (ip), vehicle: saline
[23] = dose: 400.0 mg/kg/injection, schedule: Q04DX003 (ip), vehicle: saline

Measured: T/C

CCCCCCCC/C=C\CCCCCCCC(=O)OCCCCC
inactive: dose: 100.0 mg/kg/injection, schedule: Q01DX001 (ip), vehicle: Klucel (hydroxypropylcellulose) (HPC) 93 % of control | dose: 100.0 mg/kg/injection, schedule: Q01DX009 (ip), vehicle: saline sonified 102 % of control | [1] 108 % of control | [2] 93 % of control | dose: 200.0 mg/kg/injection, schedule: Q01DX001 (ip), vehicle: Klucel (hydroxypropylcellulose) (HPC) 92 % of control | dose: 200.0 mg/kg/injection, schedule: Q01DX009 (ip), vehicle: saline sonified 100 % of control | [3] 98 % of control | [4] 91 % of control | dose: 400.0 mg/kg/injection, schedule: Q01DX001 (ip), vehicle: Klucel (hydroxypropylcellulose) (HPC) 103 % of control | dose: 400.0 mg/kg/injection, schedule: Q01DX009 (ip), vehicle: saline sonified 93 % of control | [5] 95 % of control | [6] 95 % of control

CN(C)C(=NN=C(N(C)C)N(C)C)N(C)C
inactive: dose: 12.5 mg/kg/injection, schedule: Q04DX003 (sc), vehicle: saline 102 % of control | dose: 25.0 mg/kg/injection, schedule: Q04DX003 (sc), vehicle: saline 107 % of control | dose: 50.0 mg/kg/injection, schedule: Q04DX003 (sc), vehicle: saline 100 % of control | dose: 100.0 mg/kg/injection, schedule: Q04DX003 (sc), vehicle: saline 98 % of control

CCC(O)C1CCCCN1 (stereo unspecified)
inactive: [2] 91 % of control | [4] 104 % of control

CC(=O)CC1CCC(CC(C)=O)CC1 (stereo unspecified)
inactive: dose: 100.0 mg/kg/injection, schedule: Q04DX002 (ip), vehicle: other 98 % of control | dose: 200.0 mg/kg/injection, schedule: Q04DX002 (ip), vehicle: other 90 % of control | dose: 400.0 mg/kg/injection, schedule: Q04DX002 (ip), vehicle: other 98 % of control

CCN(CC)CCN(CC)CCN(CC)CC
inactive: [7] 94 % of control | dose: 200.0 mg/kg/injection, schedule: Q01DX009 (ip), vehicle: saline 115 % of control

O=C1Nc2nc(=O)nc3[nH]c(=O)nc(n23)N1
inactive: dose: 25.0 mg/kg/injection, schedule: Q01DX009 (ip), vehicle: saline 106 % of control | dose: 50.0 mg/kg/injection, schedule: Q01DX009 (ip), vehicle: saline 98 % of control | dose: 50.0 mg/kg/injection, schedule: Q04DX003 (ip), vehicle: saline 110 % of control | [7] 98 % of control | [8] 103 % of control

CCOC(=O)c1cncc(C(=O)OCC)c1
inactive: [9] 100 % of control | [10] 100 % of control | [11] 101 % of control | [12] 104 % of control | [13] 92 % of control | [14] 112 % of control | [15] 100 % of control

[Cl][Sn]([CH]1CCCCC1)([CH]1CCCCC1)[CH]1CCCCC1
inactive: dose: 12.5 mg/kg/injection, schedule: Q04DX002 (ip), vehicle: gum acacia 101 % of control | dose: 25.0 mg/kg/injection, schedule: Q04DX002 (ip), vehicle: gum acacia 101 % of control

COC1CCC(/C=C(\C#N)C2CCC(OC)CC2)CC1 (stereo unspecified)
inactive: [16] 96 % of control | [17] 92 % of control | [18] 96 % of control

Cn1nnc(N)n1
inactive: [19] 98 % of control | [8] 102 % of control | [20] 100 % of control | [21] 96 % of control | [22] 100 % of control | [23] 102 % of control

O=C(/C=C\c1ccc(Cl)cc1)c1ccccc1
inactive: [1] 91 % of control | [16] 89 % of control | dose: 100.0 mg/kg/injection, schedule: Q04DX002 (ip), vehicle: gum acacia 98 % of control | [3] 91 % of control | [17] 96 % of control | dose: 200.0 mg/kg/injection, schedule: Q04DX002 (ip), vehicle: gum acacia 95 % of control | [5] 86 % of control | [18] 96 % of control | dose: 400.0 mg/kg/injection, schedule: Q04DX002 (ip), vehicle: gum acacia 91 % of control

COc1ccc2c(c1)CSC(c1ccccc1)C2=O (stereo unspecified)
inactive: [16] 105 % of control | [17] 97 % of control | [18] 90 % of control

Nc1ncnn1Cc1ccccc1
inactive: [19] 96 % of control | [8] 101 % of control | [20] 97 % of control | [21] 106 % of control | [22] 100 % of control | [23] 101 % of control

OC1c2ccccc2-c2ccc(N(Cc3ccccc3)Cc3ccccc3)cc21 (stereo unspecified)
inactive: [4] 87 % of control

COC(OC)c1nc(N)[nH]c(=O)c1Cc1ccc(C)c2ccccc12
inactive: [1] 96 % of control | [2] 103 % of control | [3] 90 % of control | [4] 97 % of control | [5] 90 % of control | [6] 92 % of control

[Si]C1CCCCC1
inactive: dose: 100.0 mg/kg/injection, schedule: Q01DX001 (ip), vehicle: saline with Tween-80 96 % of control | dose: 200.0 mg/kg/injection, schedule: Q01DX001 (ip), vehicle: saline with Tween-80 89 % of control | dose: 400.0 mg/kg/injection, schedule: Q01DX001 (ip), vehicle: saline with Tween-80 96 % of control

CCCCCCCC/C=C\CCCCCCCC(=O)[O][Sn]([CH2]CCC)([CH2]CCC)[O]C(=O)CCCCCCC/C=C\CCCCCCCC
inactive: dose: 1.56 mg/kg/injection, schedule: Q01DX009 (ip), vehicle: Klucel (hydroxypropylcellulose) (HPC) 109 % of control | dose: 3.12 mg/kg/injection, schedule: Q01DX009 (ip), vehicle: Klucel (hydroxypropylcellulose) (HPC) 98 % of control | dose: 6.25 mg/kg/injection, schedule: Q01DX009 (ip), vehicle: Klucel (hydroxypropylcellulose) (HPC) 106 % of control

OC(c1ccccc1)(c1ccccc1)C(F)(Cl)Cl
inactive: [8] 101 % of control | [21] 94 % of control | [23] 90 % of control

CCCCOC(=O)c1ccc(NC(=O)Nc2cc([N+](=O)[O-])ccc2Cl)cc1
inactive: dose: 25.0 mg/kg/injection, schedule: Q01DX009 (ip), vehicle: Klucel (hydroxypropylcellulose) (HPC) 113 % of control | [9] 100 % of control | [10] 90 % of control

CC(=O)N1CCCC1=O
inactive: [10] 100 % of control | [11] 96 % of control | [12] 100 % of control | [13] 102 % of control | [14] 95 % of control | [15] 102 % of control

CCSc1nc(N)c(C#N)cc1C#N
inactive: [10] 105 % of control | [11] 88 % of control | [12] 95 % of control | [13] 95 % of control

CCP(C)(=S)CC
inactive: [10] 101 % of control | [12] 100 % of control | [14] 100 % of control

S=c1[nH]nc(Nc2ccccc2Cl)s1
inactive: [10] 97 % of control | [12] 98 % of control | [14] 109 % of control

Nc1c(Cl)cc(S(N)(=O)=O)cc1Cl
inactive: dose: 100.0 mg/kg/injection, schedule: Q01DX009 (ip), vehicle: other 98 % of control | dose: 100.0 mg/kg/injection, schedule: Q04DX003 (ip), vehicle: other 100 % of control | dose: 200.0 mg/kg/injection, schedule: Q01DX009 (ip), vehicle: other 91 % of control | dose: 200.0 mg/kg/injection, schedule: Q04DX003 (ip), vehicle: other 98 % of control | dose: 400.0 mg/kg/injection, schedule: Q04DX003 (ip), vehicle: other 98 % of control

Cc1cccc(C)c1NC(=O)OCCOc1ccc(Br)cc1
inactive: [1] 95 % of control | [3] 92 % of control | [5] 92 % of control

COc1ccc2c(c1)CC1(CC2)NCC(=O)NC1=O (stereo unspecified)
inactive: dose: 100.0 mg/kg/injection, schedule: Q01DX001 (ip), vehicle: carboxymethylcellulose (CMC) 97 % of control | dose: 200.0 mg/kg/injection, schedule: Q01DX001 (ip), vehicle: carboxymethylcellulose (CMC) 97 % of control | dose: 400.0 mg/kg/injection, schedule: Q01DX001 (ip), vehicle: carboxymethylcellulose (CMC) 115 % of control
